According to patent publication US5026832A, “9-dihydro-9-O-alkyldesmycosin derivatives” (Toyo Jozo Co., Ltd., priority 1988, dated 1991):
In brackets after ≈: the same amount, converted by molar mass.

Tests used:
[1] = tested on: Staphylococcus aureus FDA 209P JC-1; experiment: Antimicrobial activity (minimum inhibitory concentration); assay type: cell-based; conditions: FDA209P; Staphylococcus aureus FDA 209P JC-1, about 10^6 /ml
Procedure: (§1) Minimum inhibitory concentrations (MIC, μg/ml) of various compounds of formula (I) against various microorganisms (about 10^6 /ml) were measured.

[2] = tested on: Staphylococcus aureus MS 353 C36; experiment: as above; assay type: cell-based; conditions: MS353C36; Staphylococcus aureus MS 353 C36, about 10^6 /ml
Procedure: as §1

[3] = tested on: Staphylococcus aureus MS 353; experiment: as above; assay type: cell-based; conditions: MS353; Staphylococcus aureus MS 353, about 10^6 /ml
Procedure: as §1

[4] = tested on: Staphylococcus aureus Smith; experiment: as above; assay type: cell-based; conditions: about 10^6 /ml
Procedure: as §1

[5] = tested on: Staphylococcus epidermidis sp-al-1; experiment: as above; assay type: cell-based; conditions: SPAL1; Staphylococcus epidermidis sp-al-1, about 10^6 /ml
Procedure: as §1

[6] = tested on: Staphylococcus pyogenes 1022; experiment: as above; assay type: cell-based; conditions: Staphylococcus pyogenes 1022, about 10^6 /ml
Procedure: as §1

[7] = tested on: Staphylococcus pyogenes N.Y.5; experiment: as above; assay type: cell-based; conditions: Staphylococcus pyogenes N.Y.5, about 10^6 /ml
Procedure: as §1

[8] = tested on: Staphylococcus pyogenes S-23; experiment: as above; assay type: cell-based; conditions: Staphylococcus aureus, S23; Staphylococcus pyogenes S-23, about 10^6 /ml
Procedure: as §1

[9] = tested on: Staphylococcus pyogenes S-23; experiment: Infectious disease curing effect by oral administration in infected mice; assay type: in vivo, ICR male mice; conditions: Staphylococcus aureus, S23, 120 h; oral, 1 hour after abdominal inoculation of Staphylococcus pyogenes S-23, inspected for 5 days, Van der Waerden method; read-out: ED50
Procedure: A pre-incubated test microorganism, Staphylococcus pyogenes S-23, was suspended in a 5% mucin solution and inoculated into the ICR male mice (8 mice per group) abdomen in an amount of 2×10^2. After 1 hour, Compounds (I) of the present invention dissolved or suspended in a phosphate buffer were orally administered to the mice. The mice were inspected for 5 days to determine ED50 (mg/kg) by the Van der Waerden method.

Structure (SMILES)	MIC [1]	MIC [2]	MIC [3]	MIC [4]	MIC [5]	MIC [6]	MIC [7]	MIC [8]	ED50 [9]
CCC1OC(=O)CC(O)C(C)C(OC2OC(C)C(O)C(N(C)C)C2O)C(CC=O)CC(C)C(OCC2CCCCC2)C=CC(C)=CC1COC1OC(C)C(O)C(OC)C1OC (stereo not shown) [Compound 16, 9-dihydro-9-O-cyclohexylmethyldesmycosin]	0.78 µg/mL (≈ 0.896 µM)	0.78 µg/mL (≈ 0.896 µM)	0.39 µg/mL (≈ 0.448 µM)	1.56 µg/mL (≈ 1.79 µM)	1.56 µg/mL (≈ 1.79 µM)	50 µg/mL (≈ 57.5 µM)	0.39 µg/mL (≈ 0.448 µM)	0.39 µg/mL (≈ 0.448 µM)	–
CCC1OC(=O)CC(O)C(C)C(OC2OC(C)C(O)C(N(C)C)C2O)C(CC=O)CC(C)C(OC)C=CC(C)=CC1COC1OC(C)C(O)C(OC)C1OC (stereo not shown) [Compound 1, 9-dihydro-9-O-methyldesmycosin]	0.1 µg/mL (≈ 0.127 µM)	0.2 µg/mL (≈ 0.254 µM)	0.2 µg/mL (≈ 0.254 µM)	0.39 µg/mL (≈ 0.495 µM)	≤ 0.05 µg/mL	–	≤ 0.05 µg/mL	≤ 0.05 µg/mL	100 to 200 mg/kg
CCOC1C=CC(C)=CC(COC2OC(C)C(O)C(OC)C2OC)C(CC)OC(=O)CC(O)C(C)C(OC2OC(C)C(O)C(N(C)C)C2O)C(CC=O)CC1C (stereo not shown) [Compound 2, 9-dihydro-9-O-ethyldesmycosin]	0.1 µg/mL (≈ 0.125 µM)	0.1 µg/mL (≈ 0.125 µM)	0.2 µg/mL (≈ 0.249 µM)	0.2 µg/mL (≈ 0.249 µM)	0.1 µg/mL (≈ 0.125 µM)	> 100 µg/mL	≤ 0.05 µg/mL	≤ 0.05 µg/mL	–
CCC1OC(=O)CC(O)C(C)C(OC2OC(C)CC(N(C)C)C2O)C(CC=O)CC(C)C(OC)C=CC(C)=CC1CN(C)C (stereo not shown) [Compound 7, 9-dihydro-9-O-methyl-23-demycinosyloxy-23-dimethylamino-4'-deoxydesmycosin]	0.2 µg/mL (≈ 0.32 µM)	0.2 µg/mL (≈ 0.32 µM)	0.2 µg/mL (≈ 0.32 µM)	0.78 µg/mL (≈ 1.25 µM)	0.2 µg/mL (≈ 0.32 µM)	> 100 µg/mL	0.2 µg/mL (≈ 0.32 µM)	0.2 µg/mL (≈ 0.32 µM)	100 to 200 mg/kg
CCC1OC(=O)CC(O)C(C)C(OC2OC(C)C(O)C(N(C)C)C2O)C(CC=O)CC(C)C(OCc2ccccc2)C=CC(C)=CC1COC1OC(C)C(O)C(OC)C1OC (stereo not shown) [Compound 18, 9-dihydro-9-O-benzyldesmycosin]	0.2 µg/mL (≈ 0.231 µM)	0.2 µg/mL (≈ 0.231 µM)	0.2 µg/mL (≈ 0.231 µM)	0.39 µg/mL (≈ 0.451 µM)	0.39 µg/mL (≈ 0.451 µM)	100 µg/mL (≈ 116 µM)	0.1 µg/mL (≈ 0.116 µM)	0.1 µg/mL (≈ 0.116 µM)	–
CCC1OC(=O)CC(OC(C)=O)C(C)C(OC2OC(C)CC(N(C)C)C2O)C(CC=O)CC(C)C(OC)C=CC(C)=CC1COC1OC(C)C(O)C(OC)C1OC (stereo not shown) [Compound 13, 9-dihydro-9-O-methyl-3-O-acetyl-4'-deoxydesmycosin]	0.2 µg/mL (≈ 0.246 µM)	0.2 µg/mL (≈ 0.246 µM)	0.2 µg/mL (≈ 0.246 µM)	0.39 µg/mL (≈ 0.479 µM)	0.39 µg/mL (≈ 0.479 µM)	> 100 µg/mL	0.1 µg/mL (≈ 0.123 µM)	0.1 µg/mL (≈ 0.123 µM)	–
CCC1OC(=O)CC(O)C(C)C(OC2OC(C)CC(N(C)C)C2O)C(CC=O)CC(C)C(OC)C=CC(C)=CC1COC1OC(C)C(O)C(OC)C1OC (stereo not shown) [Compound 6, 9-dihydro-9-O-methyl-4'-deoxydesmycosin]	0.1 µg/mL (≈ 0.13 µM)	0.2 µg/mL (≈ 0.259 µM)	0.2 µg/mL (≈ 0.259 µM)	0.39 µg/mL (≈ 0.505 µM)	0.1 µg/mL (≈ 0.13 µM)	–	≤ 0.05 µg/mL	≤ 0.05 µg/mL	64.8 mg/kg
CCC1OC(=O)CC(O)C(C)C(OC2OC(C)C(O)C(N(C)C)C2O)C(CC=O)CC(C)C(OCC2CC2)C=CC(C)=CC1COC1OC(C)C(O)C(OC)C1OC (stereo not shown) [Compound 14, 9-dihydro-9-O-cyclopropylmethyldesmycosin]	0.2 µg/mL (≈ 0.242 µM)	0.2 µg/mL (≈ 0.242 µM)	0.2 µg/mL (≈ 0.242 µM)	0.39 µg/mL (≈ 0.471 µM)	0.2 µg/mL (≈ 0.242 µM)	> 100 µg/mL	0.1 µg/mL (≈ 0.121 µM)	≤ 0.05 µg/mL	–
CCC(=O)OC1CC(=O)OC(CC)C(COC2OC(C)C(O)C(OC)C2OC)C=C(C)C=CC(OC)C(C)CC(CC=O)C(OC2OC(C)C(O)C(N(C)C)C2O)C1C (stereo not shown) [Compound 5, 9-dihydro-9-O-methyl-3-O-propionyldesmycosin]	0.1 µg/mL (≈ 0.118 µM)	0.2 µg/mL (≈ 0.237 µM)	0.2 µg/mL (≈ 0.237 µM)	0.39 µg/mL (≈ 0.462 µM)	0.2 µg/mL (≈ 0.237 µM)	50 µg/mL (≈ 59.2 µM)	0.05 µg/mL (≈ 0.0592 µM)	0.1 µg/mL (≈ 0.118 µM)	84 mg/kg
CCC1OC(=O)CC(O)C(C)C(OC2OC(C)C(O)C(N(C)C)C2O)C(CC=O)CC(C)C(=O)C=CC(C)=CC1COC1OC(C)C(O)C(OC)C1OC (stereo not shown) [Desmycosin, 4'-demycarosyltylosin]	0.2 µg/mL (≈ 0.259 µM)	0.2 µg/mL (≈ 0.259 µM)	0.2 µg/mL (≈ 0.259 µM)	0.39 µg/mL (≈ 0.505 µM)	0.2 µg/mL (≈ 0.259 µM)	> 100 µg/mL	≤ 0.05 µg/mL	≤ 0.05 µg/mL	–
